Peptide text beside a SMILES is read from it.
Biological target: T1, porcine aminopeptidase M (EC 3.4.11.2) (Sus scrofa, UniProt P15145)
T1 construct: purchased Sigma Aldrich; host or cells: pig kidney (tissue-derived)
T1 sequence (P15145 1-963): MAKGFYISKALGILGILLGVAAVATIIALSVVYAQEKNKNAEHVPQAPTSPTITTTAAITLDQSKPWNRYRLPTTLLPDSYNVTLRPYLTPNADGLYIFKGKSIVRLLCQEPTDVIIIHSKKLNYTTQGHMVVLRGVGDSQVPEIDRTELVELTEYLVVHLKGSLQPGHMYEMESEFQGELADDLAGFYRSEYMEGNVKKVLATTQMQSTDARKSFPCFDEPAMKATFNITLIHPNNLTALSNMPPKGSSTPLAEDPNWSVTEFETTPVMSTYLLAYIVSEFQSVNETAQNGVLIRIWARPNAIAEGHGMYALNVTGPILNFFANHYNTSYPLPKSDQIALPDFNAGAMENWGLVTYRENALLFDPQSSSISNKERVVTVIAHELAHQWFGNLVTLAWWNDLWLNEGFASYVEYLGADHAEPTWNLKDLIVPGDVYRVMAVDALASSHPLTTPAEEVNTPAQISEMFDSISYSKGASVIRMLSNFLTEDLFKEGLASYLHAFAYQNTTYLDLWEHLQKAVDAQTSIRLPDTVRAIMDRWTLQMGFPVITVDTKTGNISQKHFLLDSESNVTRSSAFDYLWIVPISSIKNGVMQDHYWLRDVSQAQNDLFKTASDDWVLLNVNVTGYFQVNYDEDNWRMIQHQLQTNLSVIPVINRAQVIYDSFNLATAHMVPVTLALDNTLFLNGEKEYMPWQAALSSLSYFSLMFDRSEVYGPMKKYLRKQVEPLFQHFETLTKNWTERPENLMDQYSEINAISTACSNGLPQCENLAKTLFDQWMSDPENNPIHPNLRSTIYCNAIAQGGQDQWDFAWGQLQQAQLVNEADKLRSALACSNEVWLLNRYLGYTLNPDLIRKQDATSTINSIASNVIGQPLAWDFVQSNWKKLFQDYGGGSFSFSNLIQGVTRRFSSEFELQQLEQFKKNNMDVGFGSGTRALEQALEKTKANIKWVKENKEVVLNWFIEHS
Test: Aminopeptidase M inhibition, spectrophotometric, L-leucine-p-nitroanilide substrate
Format: biochemical
Settings: porcine AMP from pig kidney, 1 mU mL^-1; 0.1 M borate buffer pH 8.0; 30 min pre-incubation at 30 °C; inhibitor 0.1-10 μM; L-leucine-p-nitroanilide 1.2 mM; absorbance 405 nm; triplicate, average of three independent experiments
Method: Inhibition assay spectrophotometrically performed using porcine aminopeptidase M (EC 3.4.11.2, from pig kidney—Sigma Aldrich®). After 30 min pre-incubation at 30 °C, 5 μL of the commercial aminopeptidase M enzyme (1 mU mL^−1) added to microginin solutions (concentrations of 0.1, 0.25, 0.5, 1, 5 and 10 μM). […] The final volume at the 96-well plates was 75 μL (medium composed of 0.1 M borate buffer, Ph 8.0). After 30 min pre-incubation, 30 μL of the L-leucine-p-nitroanilide substrate at the concentration of 1.2 mM were added for the microginins AMP inhibition assays. The kinetics of inhibition of AMP were determined and the reaction interrupted with the addition of 25 μL of 30% acetic acid solution.
To obtain the factor used for the calculation of specific activity, a standard curve was performed with the product of the reaction (p-nitroanilide 1 mM), obtaining the slope of the curve. Absorbance reading was performed on the Spectra Max M2-Molecular Devices® 96-well plate reader with SoftMax Pro® software version 5.3, and the p-nitroanilide product concentrations were determined by the millimolar extinction coefficient at 405 nm as 9.96 (Sigma-Aldrich). After reading the samples, the residual activity calculations performed in mU mL^−1, percentage of activity and inhibition. […]

Row | SMILES | IC50
1 | CCCCCCC[C@@H](N)[C@H](O)C(=O)N[C@H](C(=O)N[C@@H](CC(C)C)C(=O)N[C@@H](CCc1ccc(O)cc1)C(=O)N[C@@H](Cc1ccc(O)cc1)C(=O)O)C(C)C [MG756, Ahda-Val-Leu-HTy-Tyr] (HELM PEPTIDE1{[CCCCCCC[C@@H](N)[C@H](O)C(=O)[*:2]].V.L.[O=C([C@H](CCc1ccc(O)cc1)N[*:1])[*:2]].Y}$$$$V2.0) | 3.26 ± 0.5 µM
2 | CCCCCCC[C@@H](NC)[C@H](O)C(=O)N[C@H](C(=O)N[C@@H](CC(C)C)C(=O)N[C@@H](CCc1ccc(O)cc1)C(=O)N[C@@H](Cc1ccc(O)cc1)C(=O)O)C(C)C [MG770, N-Me-Ahda-Val-Leu-HTy-Tyr] (HELM PEPTIDE1{[CCCCCCC[C@@H](NC)[C@H](O)C(=O)[*:2]].V.L.[O=C([C@H](CCc1ccc(O)cc1)N[*:1])[*:2]].Y}$$$$V2.0) | 1.2 ± 0.1 µM
